Measured values as given in PubChem BioAssay AID2740 (NMMLSC, 2010).
The source made the active and inactive calls.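 Rule for the calls: active = compounds whose fitted half-maximal concentration for changing the GFP signal is at or below a set limit; inactive = the rest.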

Experiment: TOR pathway RPL19A-GFP modulators, concentration series – cell-based, S. cerevisiae, flow cytometry, MLPCN hits, dose response (AID 2740);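 note: background is signal of the same compound in parental non-GFP s288c yeast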
Conditions: S. cerevisiae RPL19A-GFP strain, flow cytometry fluorescence, 3 h; at 33 µM (top of the series)

| Structure (SMILES) | GFP fluorescence, lower = active (kMESF (background-subtracted)) |
| --- | --- |
| Nc1nc2ncc(CNc3ccc(C(=O)N[C@@H](CCC(=O)O)C(=O)O)cc3)nc2c(=O)[nH]1 | 37 (inactive) |
| O=[N+]([O-])c1ccc(N=Nc2c(Cl)cc(O)cc2Cl)cc1 | 37.9 (inactive) |
| Cc1ccc(S(=O)(=O)N2CCCC2C(=O)NCc2ccncc2)cc1 (centres undefined) | 39.8 (inactive) |
| Cc1cc(O)c(C(=O)/C=C/c2ccc(Cl)cc2)c(=O)o1 | 33 (inactive) |
| COc1cc(NC(=O)c2ccc(C)cc2)ccc1NC(=O)c1cc2ccccc2o1 | 40.8 (inactive) |
| O=C(Nc1cccc(C(F)(F)F)c1)Oc1ccc(Cl)c2cccnc12 | 39.4 (inactive) |
| COc1ccc(Cl)cc1C(Nc1cccnc1)c1ccc2cccnc2c1O (centres undefined) | 42.8 (inactive) |
| Oc1c(Br)cc(Br)cc1C=Nc1ccc2c(c1)OCO2 | 40 (inactive) |
| CCOC(=O)CS(=O)(=O)c1nc(-c2ccccc2)cc(C(F)(F)F)n1 | 44.1 (inactive) |
| C=CCOc1cccc(C(=O)/C=C2/C(=O)Nc3ccccc32)c1 | 40.7 (inactive) |
| CSC1=NS(=O)(=O)c2c(C)nn(C)c2S1 | 35.2 (inactive) |
| O=c1c(-c2ccc(Cl)cc2)[n+]([O-])c2ccccc2n1O | 30.9 (inactive) |
| CN1CCN(C(c2ccc(C(F)(F)F)cc2)c2ccc3cccnc3c2O)CC1 (centres undefined) | 29.6 (inactive) |
| Cc1[nH]c2ccccc2c1C(=O)COC(=O)c1ccc([N+](=O)[O-])s1 | 13.6 (inactive) |
| CCc1cccc2sc(N3CCN(C(=O)c4ccc([N+](=O)[O-])o4)CC3)nc12 | 11.8 (inactive) |
| O=C1NC(=O)N(c2ccccc2)C(=O)/C1=C/c1ccc(Sc2ccccc2)o1 | 37.1 (inactive) |
| COC(=O)CCCC1=CC2=CC(=O)C(C)(OC(=O)CCc3ccccc3)C(=O)C2=CO1 (centres undefined) | 42.8 (inactive) |
| COc1cc(SSc2cc(OC)cc([N+](=O)[O-])c2N)c(N)c([N+](=O)[O-])c1 | 32.6 (inactive) |
| Cc1cccc(N=Nc2ccc(O)c3ncccc23)c1 | 33.3 (inactive) |
| CC[C@H](C)/C=C(C)/C=C/C1=CC2=C(Cl)C(=O)[C@@](C)(OC(C)=O)C(=O)C2=CO1 | 4.51 (inactive) |

| Structure (SMILES) | GFP fluorescence, lower = active (kMESF (background-subtracted)) |
| --- | --- |
| Oc1ccc(CNc2ccccc2)c2cccnc12 | 42.2 (inactive) |
| COc1ccc(C(=O)/C=C2/C(=O)Nc3ccccc32)cc1 | 38 (inactive) |
| C/C(=N/NC(=O)c1ccc(C(C)(C)C)cc1)c1ccccn1 | 45.9 (inactive) |
| O=C1N(c2ccccc2C(F)(F)F)OC1(Cc1ccccc1)c1ccccc1 (centres undefined) | 45.8 (inactive) |
| Cc1ccc(-c2nc(C)sc2CC(=O)Nc2nnc(C)s2)cc1 | 37.9 (inactive) |
| COc1ccccc1NC1=C(Cl)C(=O)N(c2ccccc2)C1=O | 39.5 (inactive) |
| Cc1ccc(S(=O)(=O)Cc2cc(F)c([N+](=O)[O-])cc2[N+](=O)[O-])cc1 | 7.75 (inactive) |
| COc1ccc([C@]2(C(C)C)ON(c3ccccc3C(F)(F)F)C2=O)cc1 | 46 (inactive) |
| Nc1nc(N)c2nc(CNc3ccc(C(=O)NC(CCC(=O)O)C(=O)O)cc3)cnc2n1 (centres undefined) | 45.5 (inactive) |
| C#CCOCCOCCOCCNc1nc(N2CCN(C(=O)CCCCCCCCCCNC(=O)[C@H](CCCCN)n3cc(CCCC(=O)O)nn3)CC2)nc(N2CCN(C(=O)CCCCCCCCCCNC(=O)[C@H](CCCN=C(N)N)n3cc(C[C@@H](C)CC)nn3)CC2)n1 | 27.1 (inactive) |
| O=C(c1ccc(Cl)c([N+](=O)[O-])c1)N1CCN(c2ccccc2)CC1 | 46.4 (inactive) |
| O=C(Nc1nc2ccc(F)cc2s1)c1ccccn1 | 48.2 (inactive) |
| O=C(/C=C/Sc1ncn[nH]1)c1ccc(Cl)cc1 | 29 (inactive) |
| C/C(=N\Nc1ncnc2sc(C)c(C)c12)c1ccccn1 | -2.55 (inactive) |
| CCCCC1OC23CCCCC2C(C#N)(C(=N)O3)C1(C#N)C#N (centres undefined) | 43.5 (inactive) |
| C=C1C(O)[C@@H]2O[C@]3(CC[C@H](/C=C/C(C)[C@@H]4CC(C)=CC5(O[C@H](C[C@@](C)(O)C(=O)O)CCC5O)O4)O3)CC[C@H]2O[C@@H]1C(O)CC(C)[C@H]1OC2(CCCCO2)CCC1C (some centres undefined) | 41.3 (inactive) |
| C=CCOc1ccc(C(=O)/C=C2/C(=O)Nc3ccccc32)cc1 | 37.9 (inactive) |
| COc1cccc(/C=N/Nc2ccc([N+](=O)[O-])cn2)c1O | 42.1 (inactive) |
| O=C(OCn1ncc(Br)c(Br)c1=O)c1c(F)cccc1F | 37.9 (inactive) |
